# Source: ChEMBL document CHEMBL1201862, “PubChem BioAssay data set” (2004)
#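 Following 48 hours of exposure in 96-well plates, responses at five concentrations were used to interpolate endpoints linearly. At the GI50, growth is halved.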 Calls of active or inactive are those of the source. Rule as the data show it: active = GI50 up to about 1.1 µM and inactive = higher.
# What was measured:
# Assay in all cases: DTP human tumour cell line panel, 48 h
# SK-MEL-2 = test system: SK-MEL-2
# NCI/ADR-RES = test system: NCI/ADR-RES
# NCI-H522 = test system: NCI-H522
# LOX IMVI = test system: LOX IMVI
# K562 = test system: K562
# MDA-MB-231 = test system: MDA-MB-231
# RXF 393 = test system: RXF 393
# HCT-15 = test system: HCT-15
# EKVX = test system: EKVX
# Hs-578T = test system: Hs-578T
# SF-268 = test system: SF-268
# UACC-62 = test system: UACC-62
# T47D = test system: T47D
# DU-145 = test system: DU-145
# RPMI-8226 = test system: RPMI-8226
# SK-MEL-5 = test system: SK-MEL-5
# IGROV-1 = test system: IGROV-1
# SN12C = test system: SN12C
# SR = test system: SR
# Malme-3M = test system: Malme-3M
Compound,GI50 (SK-MEL-2),GI50 (NCI/ADR-RES),GI50 (NCI-H522),GI50 (LOX IMVI),GI50 (K562),GI50 (MDA-MB-231),GI50 (RXF 393),GI50 (HCT-15) [µM],GI50 (EKVX),GI50 (Hs-578T),GI50 (SF-268),GI50 (UACC-62),GI50 (T47D),GI50 (DU-145),GI50 (RPMI-8226),GI50 (SK-MEL-5),GI50 (IGROV-1),GI50 (SN12C),GI50 (SR),GI50 (Malme-3M)
COC(=O)C(NC(=O)OC(C)(C)C)P(=O)(OC)OC (centres undefined),> 100 µM (inactive),> 100 µM (inactive),> 100 µM (inactive),> 100 µM (inactive),> 100 µM (inactive),> 100 µM (inactive),> 100 µM (inactive),> 100,> 100 µM (inactive),> 100 µM (inactive),> 100 µM (inactive),> 100 µM (inactive),> 100 µM (inactive),> 100 µM (inactive),> 100 µM (inactive),> 100 µM (inactive),> 100 µM (inactive),> 100 µM (inactive),> 100 µM (inactive),> 100 µM (inactive)
c1ccc2c(c1)c1c(n2CCOCCCN2CCCCC2)CCCC1,18.7 µM (inactive),17.9 µM (inactive),15.3 µM (inactive),,14 µM (inactive),20.5 µM (inactive),11.4 µM (inactive),14.2,17.1 µM (inactive),20.1 µM (inactive),28.2 µM (inactive),,17.2 µM (inactive),44.7 µM (inactive),31.1 µM (inactive),20.6 µM (inactive),14.7 µM (inactive),13.6 µM (inactive),15.2 µM (inactive),18 µM (inactive)
COc1ccc(NC(=S)c2ccc([N+](=O)[O-])o2)cc1,1.69 µM (inactive),0.678 µM (active),1.29 µM (inactive),1.12 µM (inactive),2.07 µM (inactive),2.48 µM (inactive),1.99 µM (inactive),0.895,2.92 µM (inactive),2.33 µM (inactive),2.04 µM (inactive),1.77 µM (inactive),3.01 µM (inactive),3.17 µM (inactive),1.19 µM (inactive),0.65 µM (active),1.82 µM (inactive),2.13 µM (inactive),0.927 µM (active),2.37 µM (inactive)
C[N+]1(C)CN(c2ccccc2)C2(CCN(CCCC(=O)c3cccs3)CC2)C1=O,> 100 µM (inactive),> 100 µM (inactive),> 100 µM (inactive),58.1 µM (inactive),76 µM (inactive),72.6 µM (inactive),> 100 µM (inactive),56.4,> 100 µM (inactive),53.7 µM (inactive),> 100 µM (inactive),> 100 µM (inactive),> 100 µM (inactive),> 100 µM (inactive),47.3 µM (inactive),28.1 µM (inactive),68.1 µM (inactive),> 100 µM (inactive),60 µM (inactive),> 100 µM (inactive)
Cc1cc2nc3c(C(O)CO)nn(-c4ccccc4)c3nc2cc1C (centres undefined),21.4 µM (inactive),16.1 µM (inactive),22.6 µM (inactive),20.5 µM (inactive),12.9 µM (inactive),22.1 µM (inactive),14.5 µM (inactive),14.9,19.6 µM (inactive),31.6 µM (inactive),23.7 µM (inactive),,11.5 µM (inactive),15.4 µM (inactive),6.21 µM (inactive),30.9 µM (inactive),17.3 µM (inactive),13.8 µM (inactive),6.65 µM (inactive),
CC(C)N(C)C(=O)C12C3C4C1C1C2C3C41C#N (centres undefined),> 100 µM (inactive),> 100 µM (inactive),> 100 µM (inactive),> 100 µM (inactive),> 100 µM (inactive),> 100 µM (inactive),> 100 µM (inactive),> 100,> 100 µM (inactive),> 100 µM (inactive),> 100 µM (inactive),> 100 µM (inactive),> 100 µM (inactive),> 100 µM (inactive),,> 100 µM (inactive),> 100 µM (inactive),> 100 µM (inactive),> 100 µM (inactive),
